Assay results taken from US20050203191A1, “1-Aminocyclohexane derivatives for the treatment of agitation and other behavioral disorders, especially those associated with alzheimer's disease” (priority 2004, published 2005).

Experiments:
[1] = tested on: patients with mild to moderate dementia of the Alzheimer's type; assay: MD-10: randomized, double-blind, placebo-controlled evaluation of memantine; type: in vivo, human; details: MD-10, week 24, ITT LOCF
Experimental: MD-10: MD-10 was a randomized, double-blind, placebo-controlled evaluation of the safety and efficacy of memantine in patients with mild to moderate dementia of the Alzheimer's type. The primary endpoints for MD-10 were ADAS-cog and CIBIC-plus. Other endpoints for MD-10 included ADCS-ADL, NPI, and RUD (Resource Utilization in Dementia).
(§1) The five memantine trials were evaluated using an analysis of patient for a population having an NPI agitation subscale score of >4 ([…]) and for a population having an NPI score of <4 ([…]). For each NPI population, changes in SIB, ADAS-cog and/or ADL were calculated using the least square (LS) mean difference for memantine and placebo-treated patients. Similarly, for each NPI population, the raw mean difference between memantine and placebo was calculated for the CIBIC-plus results.
(§2) For primary efficacy measurements the comparison between memantine and placebo was performed using two-way analysis of covariance (ANCOVA) with treatment group and center as the two factors, and the baseline scores as covariate. Both the LOCF imputation approach and the OC approach are performed at the end of the trials.
(§3) For secondary efficacy measurements, the comparison between memantine and placebo was performed using two-way analysis of covariance (ANCOVA) with treatment group and center as the two main effects, and the baseline scores as covariate. Descriptive statistics were calculated by Visit. Again, all analyses were performed using both the LOCF imputation approach and the OC approach.
(§4) Results of ANCOVA were summarized using least square (LS) means for each treatment group with corresponding standard error (SE), the between-treatment (2-24 week) difference in the least square means with corresponding 95% confidence interval, and the between-treatment p-value corresponds to the SAS Type III sum of squares.
(§5) In data Tables 5-19, the Overall Memantine versus Placebo columns of studies MD-01, MD-02, MD-10 and MD-12 used an ANCOVA model with baseline total score as covariate, treatment and study center as factors for SIB, ADL or ADAS-cog; CMH test controlling for study center for CIBIC-Plus. For MZ-9605, results are based on arithmetic means and the Wilcoxon-Mann-Whitney test. The Agitation score columns/NPI/antipsychotics columns, except CIBIS-Plus, calculated the p-values and LS mean differences within the subgroups from an ANCOVA model with baseline total score as covariate, subgroup (yes/no), treatment, and treatment by subgroup interactions as factors. For CIBIS-Plus, the p-values and raw mean differences within a subgroup were calculated using the CMH test controlling for study center.
(§6) Patients in the same five trials described above were stratified into two sub-groups in a second analysis, those with an NPI total score in the top quartile (≧75%), or those more severely impaired at baseline, and those with an NPI total score <75%, or less severe impairment at baseline. Similar to as in Example 1, results were evaluated using the change in SIB (cognitive endpoint), and change in ADCS-ADL (functional endpoint), using the LS mean. The change in the CIBIC-plus (global endpoint) was assessed using the raw mean.
(§7) A sub-population of patients from the five trials, MD-01, MD-02, MD-10, MD-12, and MZ-9605, were concurrently taking antipsychotics.

[2] = humans; cited from earlier work
[3] = tested on: patients with mild to moderate dementia of the Alzheimer's type on stable chronic doses of a cholinesterase inhibitor; assay: MD-12: randomized, double-blind, placebo-controlled evaluation of memantine added to stable cholinesterase inhibitor; type: in vivo, human; details: MD-12, on cholinesterase inhibitor, week 24, ITT LOCF
Experimental: The primary endpoints for MD-12 were ADAS-cog and CIBIC-plus. Other endpoints for MD-12 included ADCS-ADL23, NPI, MMSE and RUD (Resource Utilization in Dementia).
as §1, §2, §3, §4, §5, §6, §7

[4] = NPI total score ≧=75% (top quartile)
[5] = antipsychotics usage “YES” (N = n)
[6] = antipsychotics usage “YES” (N = y)
[7] = baseline NPI agitation score <4
[8] = baseline NPI agitation score ≧=4
[9] = baseline NPI agitation score ≧=4, listed as MEM

SMILES: CC12CC3CC(C)(C1)CC(N)(C3)C2 [memantine, 1-amino-3,5-dimethyl adamantane]
- ADAS-cog (change) LS Mean Diff., MEM v. PLA ([1]; NPI total score <75%): −1.59
- ADAS-cog (change) mean ([1]; NPI total score <75%): −0.08
- ADCS-ADL (change) LS Mean Diff., MEM v. PLA ([1]; NPI total score <75%): 0.11
- ADCS-ADL (change) mean ([1]; NPI total score <75%): −2.67
- CIBIC-PLUS Raw Mean Diff., MEM v. PLA ([1]; NPI total score <75%): −0.32
- CIBIC-PLUS mean ([1]; NPI total score <75%): 4.16
- ADAS-cog (change) LS Mean Diff., MEM v. PLA [1, 4]: −2.53
- ADAS-cog (change) mean [1, 4]: −1.18
- ADCS-ADL (change) LS Mean Diff., MEM v. PLA [1, 4]: 0.70
- ADCS-ADL (change) mean [1, 4]: −5.04
- CIBIC-PLUS Raw Mean Diff., MEM v. PLA [1, 4]: −0.3
- CIBIC-PLUS mean [1, 4]: 4.33
- ADAS-COG (change) LS Mean Diff., MEM v. PLA (second parameter of Table 19) [1, 5]: 0.31
- ADAS-COG (change) mean (second parameter of Table 19) [1, 5]: −2.69
- ADAS-cog (change) LS Mean Diff., MEM v. PLA [1, 5]: −1.93
- ADAS-cog (change) mean [1, 5]: −0.54
- CIBIC-PLUS Raw Mean Diff., MEM v. PLA [1, 5]: −0.29
- CIBIC-PLUS mean [1, 5]: 4.18
- ADAS-COG (change) LS Mean Diff., MEM v. PLA (second parameter of Table 19) [1, 6]: −0.017
- ADAS-COG (change) mean (second parameter of Table 19) [1, 6]: −7.95
- ADAS-cog (change) LS Mean Diff., MEM v. PLA [1, 6]: −0.74
- ADAS-cog (change) mean [1, 6]: 1.42
- CIBIC-PLUS Raw Mean Diff., MEM v. PLA [1, 6]: −0.51
- CIBIC-PLUS mean [1, 6]: 4.40
- ADAS-cog (change) LS Mean Diff., MEM v. PLA [1, 7]: −1.87
- ADAS-cog (change) mean [1, 7]: −0.49
- ADCS-ADL (change) LS Mean Diff., MEM v. PLA [1, 7]: 0.65
- ADCS-ADL (change) mean [1, 7]: −3
- CIBIC-PLUS Raw Mean Diff., MEM v. PLA [1, 7]: −0.36
- CIBIC-PLUS mean [1, 7]: 4.18
- ADAS-cog (change) LS Mean Diff., MEM v. PLA [1, 8]: −1.39
- ADAS-cog (change) mean [1, 8]: 0.86
- ADCS-ADL (change) LS Mean Diff., MEM v. PLA [1, 8]: −2.66
- ADCS-ADL (change) mean [1, 8]: −5.05
- CIBIC-PLUS Raw Mean Diff., MEM v. PLA [1, 8]: no difference
- CIBIC-PLUS mean [1, 8]: 4.36
- CIBIC-PLUS Raw Mean Diff., MEM v. PLA [1, 9]: 0.0
- ADAS-cog (change) LS Mean Diff., MEM v. PLA ([1]; overall): −1.90
- ADAS-cog (change) LS mean ([1]; overall): −0.80
- ADCS-ADL (change) LS Mean Diff., MEM v. PLA ([1]; overall): 0.10
- ADCS-ADL (change) LS mean ([1]; overall): −2.90
- CIBIC-PLUS LS mean ([1]; overall): 4.20
- CIBIC-PLUS Raw Mean Diff., MEM v. PLA ([1]; overall): −0.30
- therapeutically effective circulating concentration [2]: 1 µM
- ADAS-COG (change) LS Mean Diff., MEM v. PLA (second parameter of Table 18) [3]: −0.24
- ADAS-cog (change) LS Mean Diff., MEM v. PLA ([3]; NPI total score <75%): −0.39
- ADAS-cog (change) mean ([3]; NPI total score <75%): 0.53
- ADCS-ADL (change) LS Mean Diff., MEM v. PLA ([3]; NPI total score <75%): −0.76
- ADCS-ADL (change) mean ([3]; NPI total score <75%): −3.0
- CIBIC-PLUS Raw Mean Diff., MEM v. PLA ([3]; NPI total score <75%): −0.041
- CIBIC-PLUS mean ([3]; NPI total score <75%): 4.3
- CIBIC-PLUS Raw Mean Diff., MEM v. PLA ([3]; NPI total score <75%, listed as MEM): −0.1
- ADAS-cog (change) LS Mean Diff., MEM v. PLA [3, 4]: −1.53
- ADAS-cog (change) mean [3, 4]: 0.05
- ADCS-ADL (change) LS Mean Diff., MEM v. PLA [3, 4]: 2.0
- ADCS-ADL (change) mean [3, 4]: −2.8
- CIBIC-PLUS Raw Mean Diff., MEM v. PLA [3, 4]: 0.0
- CIBIC-PLUS mean [3, 4]: 4.6
- ADCS-ADL (change) LS Mean Diff., MEM v. PLA ([3]; NPI total score ≧=75% (top quartile), listed as MEM): 2.00
- ADAS-COG (change) mean (second parameter of Table 18) [3, 5]: −2.5
- ADAS-cog (change) LS Mean Diff., MEM v. PLA [3, 5]: −0.74
- ADAS-cog (change) mean [3, 5]: 0.1
- CIBIC-PLUS Raw Mean Diff., MEM v. PLA [3, 5]: −0.06
- CIBIC-PLUS mean [3, 5]: 4.33
- ADAS-COG (change) LS Mean Diff., MEM v. PLA (second parameter of Table 18) [3, 6]: .43
- ADAS-COG (change) mean (second parameter of Table 18) [3, 6]: −6.0
- ADAS-cog (change) LS Mean Diff., MEM v. PLA [3, 6]: .4
- ADAS-cog (change) mean [3, 6]: 3.2
- CIBIC-PLUS Raw Mean Diff., MEM v. PLA [3, 6]: 0.1
- CIBIC-PLUS mean [3, 6]: 4.74
- ADAS-cog (change) LS Mean Diff., MEM v. PLA [3, 7]: −0.72
- ADAS-cog (change) mean [3, 7]: 0.35
- ADCS-ADL (change) LS Mean Diff., MEM v. PLA [3, 7]: −0.56
- ADCS-ADL (change) mean [3, 7]: −2.8
- CIBIC-PLUS Raw Mean Diff., MEM v. PLA [3, 7]: −0.1
- CIBIC-PLUS mean [3, 7]: 4.3
- ADAS-cog (change) LS Mean Diff., MEM v. PLA [3, 8]: −0.27
- ADAS-cog (change) mean [3, 8]: 0.98
- ADCS-ADL (change) LS Mean Diff., MEM v. PLA [3, 8]: 3.54
- ADCS-ADL (change) mean [3, 8]: −3.7
- CIBIC-PLUS Raw Mean Diff., MEM v. PLA [3, 8]: no difference
- CIBIC-PLUS mean [3, 8]: 4.7
- CIBIC-PLUS Raw Mean Diff., MEM v. PLA [3, 9]: 0.0
- ADAS-cog (change) LS Mean Diff., MEM v. PLA ([3]; overall): −0.70
- ADAS-cog (change) LS mean ([3]; overall): 0.10
- ADCS-ADL (change) LS Mean Diff., MEM v. PLA ([3]; overall): −0.20
- ADCS-ADL (change) LS mean ([3]; overall): −3.00
- CIBIC-PLUS LS mean ([3]; overall): 4.38
- CIBIC-PLUS Raw Mean Diff., MEM v. PLA ([3]; overall): −0.04
